{
  "source": "patent US20020035139A1",
  "about": "“COX-2 inhibitors and the prevention of the side effects of radiation therapy” (priority 2000, published 2002)",
  "key": {"[1]": {"settings": "cited from earlier work"}, "PC-3 cells": {"tested_on": "PC-3 cells", "settings": "cited from earlier work"}, "[2]": {"assay": "clinical observations during pelvic radiation for prostate carcinoma", "assay_type": "in vivo, patients", "text": "The present invention originated with observations made during pelvic radiation for prostate carcinoma."}, "[3]": {"settings": "PC-3 cells irradiated in the presence or absence of the inhibitor"}},
  "data": [
    {"compound": "NCCCNCCSP(=O)(O)O", "note": "[Ethiol]", "values": [
      {"measurement": "dry mouth following radiation treatment", "setting": "[1]; head and neck cancer", "result": "decrease the dry mouth"},
      {"measurement": "acute mucosal effects", "setting": "[1]; radiotherapy", "result": "does not limit acute mucosal effects"}
    ]},
    {"compound": "CS(=O)(=O)Nc1ccc([N+](=O)[O-])cc1OC1CCCCC1", "note": "[NS-398]", "values": [
      {"measurement": "prostaglandin (PGE(2)) level in irradiated cells", "setting": "PC-3 cells; PC-3 cells irradiated in the presence of the inhibitor", "result": "reduced PGE(2) levels"},
      {"measurement": "apoptosis", "setting": "PC-3 cells; [3]", "result": "no differences"},
      {"measurement": "cell cycle distribution", "setting": "PC-3 cells; [3]", "result": "no differences"}
    ]},
    {"compound": "CS(=O)(=O)c1ccc(C2=C(c3ccccc3)C(=O)OC2)cc1", "note": "[Vioxx, rofecoxib]", "values": [
      {"measurement": "fatigue associated with radiotherapy", "setting": "[2]", "result": "decrease"},
      {"measurement": "acute mucosal effects of radiation", "setting": "[2]; urinary and gastrointestinal tracts, during radiotherapy", "result": "decrease the acute mucosal effects of radiation"}
    ]}
  ]
}
